Here are results for 19 compounds from US20230365592A1 (Agios Pharmaceuticals, Inc., priority 2022, published 2023).

In general, AC50 refers to the concentration giving half of the maximal activity seen.

The target of the assay is T1, human PAH with the R408W mutation (Homo sapiens, UniProt P00439, R408W).
T1 construct: expressed in transfected cells
T1 sequence (P00439 1-452 R408W): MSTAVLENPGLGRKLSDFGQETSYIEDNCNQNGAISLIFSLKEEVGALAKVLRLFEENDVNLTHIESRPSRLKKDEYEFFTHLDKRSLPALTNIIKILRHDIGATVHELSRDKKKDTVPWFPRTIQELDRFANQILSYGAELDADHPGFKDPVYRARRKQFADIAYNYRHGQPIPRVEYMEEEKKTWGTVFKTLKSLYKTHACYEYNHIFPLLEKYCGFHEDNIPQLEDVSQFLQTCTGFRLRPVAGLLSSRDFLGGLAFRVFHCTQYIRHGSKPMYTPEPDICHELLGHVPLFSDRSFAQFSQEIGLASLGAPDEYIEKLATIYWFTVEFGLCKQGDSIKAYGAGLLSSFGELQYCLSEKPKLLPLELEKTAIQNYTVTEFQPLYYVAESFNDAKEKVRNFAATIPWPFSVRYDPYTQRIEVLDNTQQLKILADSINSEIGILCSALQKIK
As to the kind of experiment: Cell Based Phenylalanine Flux Assay.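 Also: after compound treatment, cells received sepiapterin plus isotope-labelled Phenylalanine for 4 hours, then labelled Tyrosine in the medium was quantified, 10-point 2-fold dilution series run in duplicate.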 As to conditions: A375 cells expressing human PAH R408W; 24 hrs compound incubation; 13C-Tyrosine by LC-MS; average where tested multiple times; read-out: AC50.

In the case of `Cn1ccc(-c2nnc(C(=O)N3CCc4[nH]cnc4[C@H]3c3cc4c(C5CC5)cccn4n3)o2)n1` [Example 1900, (S)-(4-(4-cyclopropylpyrazolo[1,5-a]pyridin-2-yl)-1,4,6,7-tetrahydro-5H-imidazo[4,5-c]pyridin-5-yl)(5-(1-methyl-1H-pyrazol-3-yl)-1,3,4-oxadiazol-2-yl)methanone], the AC50 is < 500 nM.

Take `CC(C)c1cccn2nc([C@@H]3c4nc[nH]c4CCN3C(=O)c3nnc(C(C)(C)C)o3)cc12` [Example 1902, (S)-(5-(tert-butyl)-1,3,4-oxadiazol-2-yl)(4-(4-isopropylpyrazolo[1,5-a]pyridin-2-yl)-1,4,6,7-tetrahydro-5H-imidazo[4,5-c]pyridin-5-yl)methanone]: the AC50 is < 500 nM.

For `CC(C)c1cccn2nc([C@H]3c4nc[nH]c4CCN3C(=O)c3nnc(-c4ccccn4)o3)cc12` [Example 1904, (R)-(4-(4-isopropylpyrazolo[1,5-a]pyridin-2-yl)-1,4,6,7-tetrahydro-5H-imidazo[4,5-c]pyridin-5-yl)(5-(pyridin-2-yl)-1,3,4-oxadiazol-2-yl)methanone], the AC50 is > 5000 nM.

Consider `CC(C)c1cccn2nc([C@@H]3c4nc[nH]c4CCN3C(=O)c3nnc(-c4ccccn4)o3)cc12` [Example 1905, (S)-(4-(4-isopropylpyrazolo[1,5-a]pyridin-2-yl)-1,4,6,7-tetrahydro-5H-imidazo[4,5-c]pyridin-5-yl)(5-(pyridin-2-yl)-1,3,4-oxadiazol-2-yl)methanone], for which the AC50 is < 500 nM.

Take `CC(C)c1cccn2nc([C@H]3c4nc[nH]c4CCN3C(=O)c3nnc(-c4ncccc4F)o3)cc12` [Example 1907, (R)-(5-(3-fluoropyridin-2-yl)-1,3,4-oxadiazol-2-yl)(4-(4-isopropylpyrazolo[1,5-a]pyridin-2-yl)-1,4,6,7-tetrahydro-5H-imidazo[4,5-c]pyridin-5-yl)methanone]: the half-maximal activity concentration (AC50) is > 5000 nM.

Regarding `O=C(c1nnc(C2CC2)o1)N1CCc2[nH]cnc2[C@H]1c1cc2c(Br)cccn2n1` [Example 1908, (S)-(4-(4-bromopyrazolo[1,5-a]pyridin-2-yl)-1,4,6,7-tetrahydro-5H-imidazo[4,5-c]pyridin-5-yl)(5-cyclopropyl-1,3,4-oxadiazol-2-yl)methanone], the AC50 was < 500 nM.

Consider `O=C(c1nnc(-c2ccccn2)o1)N1CCc2[nH]cnc2[C@H]1c1cc2c(Br)cccn2n1` [Example 1911, (S)-(4-(4-bromopyrazolo[1,5-a]pyridin-2-yl)-1,4,6,7-tetrahydro-5H-imidazo[4,5-c]pyridin-5-yl)(5-(pyridin-2-yl)-1,3,4-oxadiazol-2-yl)methanone], for which the concentration at half-maximal activity (AC50) is < 500 nM.

`FC(F)(F)c1ccc(N2CCc3[nH]cnc3[C@H]2c2cc3ccccn3n2)nc1` [Example 1914, (S)-4-(pyrazolo[1,5-a]pyridin-2-yl)-5-(5-(trifluoromethyl)pyridin-2-yl)-4,5,6,7-tetrahydro-1H-imidazo[4,5-c]pyridine]: the AC50 is < 500 nM.

On to `FC(F)(F)c1ccc(N2CCc3[nH]cnc3[C@@H]2c2cc3ccccn3n2)nc1` [Example 1915, (R)-4-(pyrazolo[1,5-a]pyridin-2-yl)-5-(5-(trifluoromethyl)pyridin-2-yl)-4,5,6,7-tetrahydro-1H-imidazo[4,5-c]pyridine], for which the AC50 was > 5000 nM.

Take `FC(F)c1cccn2nc([C@@H]3c4nc[nH]c4CCN3c3ccc(C(F)(F)F)cn3)cc12` [Example 1916, (S)-4-(4-(difluoromethyl)pyrazolo[1,5-a]pyridin-2-yl)-5-(5-(trifluoromethyl)pyridin-2-yl)-4,5,6,7-tetrahydro-1H-imidazo[4,5-c]pyridine]: the AC50 was < 500 nM.

Take `FC(F)c1cccn2nc([C@H]3c4nc[nH]c4CCN3c3ccc(C(F)(F)F)cn3)cc12` [Example 1917, (R)-4-(4-(difluoromethyl)pyrazolo[1,5-a]pyridin-2-yl)-5-(5-(trifluoromethyl)pyridin-2-yl)-4,5,6,7-tetrahydro-1H-imidazo[4,5-c]pyridine]: the AC50 is > 5000 nM.

For `Cc1cccn2nc([C@@H]3c4nc[nH]c4CCN3C(=O)c3cnc(C4CC4)o3)cc12` [Example 1918, (S)-(2-cyclopropyloxazol-5-yl)(4-(4-methylpyrazolo[1,5-a]pyridin-2-yl)-1,4,6,7-tetrahydro-5H-imidazo[4,5-c]pyridin-5-yl)methanone], the AC50 lay in the range of 500 to 1000 nM.

Regarding `CCc1cccn2nc([C@@H]3c4nc[nH]c4CCN3C(=O)c3nnc(C(C)(C)F)o3)cc12` [Example 1922, (S)-(4-(4-ethylpyrazolo[1,5-a]pyridin-2-yl)-1,4,6,7-tetrahydro-5H-imidazo[4,5-c]pyridin-5-yl)(5-(2-fluoropropan-2-yl)-1,3,4-oxadiazol-2-yl)methanone], the half-maximal activity concentration (AC50) is < 500 nM.

With `CCc1cccn2nc([C@H]3c4nc[nH]c4CCN3C(=O)c3nnc(-c4cnn(C)c4)o3)cc12` [Example 1925, (R)-(4-(4-ethylpyrazolo[1,5-a]pyridin-2-yl)-1,4,6,7-tetrahydro-5H-imidazo[4,5-c]pyridin-5-yl)(5-(1-methyl-1H-pyrazol-4-yl)-1,3,4-oxadiazol-2-yl)methanone], the half-maximal activity concentration (AC50) was > 5000 nM.

Turning to `CCc1cccn2nc([C@H]3c4nc[nH]c4CCN3C(=O)c3nnc(-c4ccn(C)n4)o3)cc12` [Example 1926, (R)-(4-(4-ethylpyrazolo[1,5-a]pyridin-2-yl)-1,4,6,7-tetrahydro-5H-imidazo[4,5-c]pyridin-5-yl)(5-(1-methyl-1H-pyrazol-3-yl)-1,3,4-oxadiazol-2-yl)methanone], the AC50 was > 5000 nM.

On to `O=C(c1nnc(-c2cnn(C(F)(F)F)c2)o1)N1CCc2[nH]cnc2[C@H]1c1cc2c(C3CC3)cccn2n1` [Example 1928, (S)-(4-(4-cyclopropylpyrazolo[1,5-a]pyridin-2-yl)-1,4,6,7-tetrahydro-5H-imidazo[4,5-c]pyridin-5-yl)(5-(1-(trifluoromethyl)-1H-pyrazol-4-yl)-1,3,4-oxadiazol-2-yl)methanone], for which the AC50 lay in the range of 500 to 1000 nM.

With `O=C(c1nnc(-c2ccn(C(F)F)n2)o1)N1CCc2[nH]cnc2[C@H]1c1cc2c(C3CC3)cccn2n1` [Example 1930, (S)-(4-(4-cyclopropylpyrazolo[1,5-a]pyridin-2-yl)-1,4,6,7-tetrahydro-5H-imidazo[4,5-c]pyridin-5-yl)(5-(1-(difluoromethyl)-1H-pyrazol-3-yl)-1,3,4-oxadiazol-2-yl)methanone], the AC50 was < 500 nM.

`O=C(c1nnc(-c2ccn(C(F)F)n2)o1)N1CCc2[nH]cnc2[C@@H]1c1cc2c(C3CC3)cccn2n1` [Example 1931, (R)-(4-(4-cyclopropylpyrazolo[1,5-a]pyridin-2-yl)-1,4,6,7-tetrahydro-5H-imidazo[4,5-c]pyridin-5-yl)(5-(1-(difluoromethyl)-1H-pyrazol-3-yl)-1,3,4-oxadiazol-2-yl)methanone]: the AC50 is > 5000 nM.

With `Cc1cc(-c2nnc(C(=O)N3CCc4[nH]cnc4[C@@H]3c3cc4c(C5CC5)cccn4n3)o2)nn1C` [Example 1932, (R)-(4-(4-cyclopropylpyrazolo[1,5-a]pyridin-2-yl)-1,4,6,7-tetrahydro-5H-imidazo[4,5-c]pyridin-5-yl)(5-(1,5-dimethyl-1H-pyrazol-3-yl)-1,3,4-oxadiazol-2-yl)methanone], the AC50 is > 5000 nM.
